This series can be described thus: Solubility check: surface profile of coated fluoropolymer film observed by optical microscope. It counts as physicochemical. The conditions noted are these: for Solubility: 0.3 wt % with respect to Cytop CTL-809M in perfluorotributylamine/1,1,1,3,3,3-hexafluoropropan-2-ol/Cytop CTL-809M=90/5/5 (parts by weight), applied onto glass substrate, 2 μm film, dried; for Solubility / compatibility with resin: same test as Table 1, coated Cytop CTL-809M film. The procedure: To a mixed solution of perfluorotributylamine/1,1,1,3,3,3-hexafluoropropan-2-ol/Cytop CTL-809M (manufactured by Asahi Glass Co., Ltd.)=90/5/5 (parts by weight), was added the compound represented by formula (1) according to the invention (any of Compounds 1-1 to 1-8) or any of Comparative Compounds C-1 to C-3 as shown below in an amount of 0.3 wt % with respect to the Cytop CTL-809M. Thereafter, the mixed solution was applied onto a glass substrate to a film thickness of 2 μm and dried.

As to `CC(CSc1nnc(S)s1)C(=O)OCCC(F)(F)C(F)(F)C(F)(F)C(F)(F)C(F)(C(F)(F)F)C(F)(F)F` (centres unmarked) [Compound 1-2], the Solubility result is “Compatible”.
As to `O=C(CSc1nnc(S)s1)OCCC(F)(F)C(F)(F)C(F)(F)C(F)(F)F` [Compound C-2, reference compound], the Solubility result is “Bleed out (compounds which bleed out are denoted by “Bleed out,”)” and the “Solubility / compatibility with resin” value is “bled out on the resin surface”.
On to `O=C(CCSc1nnc(S)s1)OCC(F)(F)C(F)(C(F)(F)C(F)(F)F)C(F)(F)C(F)(F)C(F)(F)C(F)(F)F` (centres unmarked) [Compound 1-8], for which the Solubility result is reported as “Compatible”.
As to `O=C(CCSc1nnc(S)s1)OCCC(F)(F)C(F)(F)C(F)(F)C(F)(F)C(F)(C(F)(F)F)C(F)(F)F` [Compound 1-1], the Solubility result was “Compatible”.
Consider `O=C(CSc1nnc(S)s1)OCCC(F)(F)C(F)(F)C(F)(F)C(F)(F)C(F)(F)C(F)(F)C(F)(F)F` [Compound C-3, reference compound], for which the Solubility result was “Bleed out slightly” and the “Solubility / compatibility with resin” value is “bled out on the resin surface”.
With `O=C(CCSc1nnc(S)s1)OCC(F)(F)C(F)(F)C(F)(F)C(F)(F)C(F)(C(F)(F)F)C(F)(F)F` [Compound 1-6], the Solubility result is “Compatible”.
Still for that read-out and setting: in the case of `O=C(CCSc1nnc(S)s1)OCCCC(F)(F)C(F)(F)C(F)(F)C(F)(F)C(F)(C(F)(F)F)C(F)(F)F` [Compound 1-7] it was “Compatible”.
For `CC(C)CCCCCCOC(=O)CCSc1nnc(S)s1` [Compound C-1, reference compound], the Solubility entry is “Remain partially” and the “Solubility / compatibility with resin” value is given as “remained partially undissolved”.
With `O=C(CCSc1nnc(S)s1)OCCC(F)(F)C(F)(F)C(F)(F)C(F)(F)C(F)(F)C(F)(F)C(F)(C(F)(F)F)C(F)(F)F` [Compound 1-4], the Solubility entry is “Compatible”.
On to `O=C(CSc1nnc(S)s1)OCCC(F)(F)C(F)(F)C(F)(F)C(F)(F)C(F)(C(F)(F)F)C(F)(F)F` [Compound 1-5], for which the Solubility entry is listed as “Compatible”.
For `O=C(CCSc1nnc(S)s1)OCCC(F)(F)C(F)(F)C(F)(C(F)(F)F)C(F)(F)F` [Compound 1-3], the Solubility entry is given as “Compatible”.

Values taken from patent US9255077B2, “Fluorine atom-containing mercapto compound” (FUJIFILM CORPORATION, priority 2012, dated 2016).
